Data as given in patent publication US11691976B2, “Coelenterazine analogues” (PROMEGA CORPORATION, priority 2018, dated 2023).

biological target: NANOLUC® Luciferase (Oplophorus gracilirostris, UniProt Q9GV45, A31E/A60N/A81I/F95D/I117V/K70R/L54V/L99Q/M102K/N193R/P142E/Q151K/Q38R/Q45L/V71I/Y165I); test: Luminescence assay: substrate titration with purified NANOLUC Luciferase (RLU, signal half-life, Km); type: biochemical; conditions: 100 μM substrate; initial light output three minutes after substrate addition; relative to furimazine set to 1.0
Sequence (Q9GV45 28-196 with tags or gaps with the stated changes limits assumed): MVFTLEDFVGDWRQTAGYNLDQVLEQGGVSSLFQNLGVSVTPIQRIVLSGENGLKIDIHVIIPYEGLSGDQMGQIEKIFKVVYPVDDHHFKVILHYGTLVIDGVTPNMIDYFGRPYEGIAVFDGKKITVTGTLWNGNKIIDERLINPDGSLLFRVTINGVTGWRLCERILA
Protocol: Each compound to be screened was dissolved in DMSO (5 mM) and then further diluted to 100 μM in NANO-GEO® Luciferase Assay Buffer. A two-fold dilution series was prepared for each substrate by serially diluting 500 μl of the substrate solution with 500 μl of NANO-GLO® Luciferase Assay Buffer. Each diluted substrate titration was then combined in equal volumes with purified NANOLUC® Luciferase diluted into CO2 independent media+10% FBS. Initial light output for each substrate was measured in a GLOMAX®-Multi+ luminometer three minutes after substrate addition and then at five minute intervals as a means to determine signal half-life. Signal half-life was calculated using GraphPad Prism One Phase Decay regression and Km and Vmax were calculated using GraphPad Prism using Michaelis-Menten regression.
The synthesized coelenterazine analogues (compounds of formula (I) and (II)) were evaluated for their suitability as luciferase substrates. NANOLUC® luciferase was employed for the screening because it is a small (19 kDa), stable, and particularly bright enzyme. […] RLU, half-life, and Km values are for furimazine is set to 1.0. […]

Q: With `O=c1c(Cc2cccs2)nc2c(Cc3ccccc3)[nH]c(-c3cccc(O)c3)cn1-2` [JRW-1040, 8-benzyl-6-(3-hydroxyphenyl)-2-(thiophen-2-ylmethyl)imidazo[1,2-a]pyrazin-3(7H)-one] as the compound, how does the “RLU (@100 μM)” value read?
A: Its value is 0.8.

Q: Which “RLU (@100 μM)” value does the source give for `O=c1c(Cc2ccco2)nc2c(Cc3ccccc3)[nH]c(-c3ccccc3)cn1-2` [Furimazine, 8-benzyl-2-(furan-2-ylmethyl)-6-phenylimidazo[1,2-a]pyrazin-3(7H)-one, reference compound] here?
A: The value was 1.

Q: For `O=c1c(Cc2ccco2)nc2c(Cc3ccc(F)cc3)[nH]c(-c3cccc(O)c3)cn1-2` [JRW-1498, 8-(4-fluorobenzyl)-2-(furan-2-ylmethyl)-6-(3-hydroxyphenyl)imidazo[1,2-a]pyrazin-3(7H)-one], which “RLU (@100 μM)” value is on record?
A: The value was 0.049.

Q: Which “RLU (@100 μM)” value does the source give for `O=c1c(Cc2cccs2)nc2c(Cc3ccccc3)[nH]c(-c3cccc(O)c3F)cn1-2` [JRW-1624, 8-benzyl-6-(2-fluoro-3-hydroxyphenyl)-2-(thiophen-2-ylmethyl)imidazo[1,2-a]pyrazin-3(7H)-one] here?
A: Its value is 0.84.

Q: For `COCc1cccc(Cc2nc3c(Cc4ccccc4)[nH]c(-c4cccc(O)c4)cn-3c2=O)c1` [JRW-0373, 8-benzyl-6-(3-hydroxyphenyl)-2-(3-(methoxymethyl)benzyl)imidazo[1,2-a]pyrazin-3(7H)-one], which “RLU (@100 μM)” value is on record?
A: Its value is 0.27.

Q: For `COc1ccc(Cc2nc3c(Cc4ccccc4)[nH]c(-c4cccc(O)c4)cn-3c2=O)cc1` [JRW-1052, 8-benzyl-6-(3-hydroxyphenyl)-2-(4-methoxybenzyl)imidazo[1,2-a]pyrazin-3(7H)-one], which “RLU (@100 μM)” value is on record?
A: Its value is 0.4.

Q: For `Nc1cccc(-c2cn3c(=O)c(Cc4ccco4)nc-3c(Cc3ccccc3F)[nH]2)c1F` [JRW-1667, 6-(3-amino-2-fluorophenyl)-8-(2-fluorobenzyl)-2-(furan-2-ylmethyl)imidazo[1,2-a]pyrazin-3(7H)-one], which “RLU (@100 μM)” value is on record?
A: The value was 2.1.

Q: For `O=c1c(Cc2ccco2)nc2c(Cc3ccccc3F)[nH]c(-c3cccc(O)c3F)cn1-2` [JRW-1668, 6-(2-fluoro-3-hydroxyphenyl)-8-(2-fluorobenzyl)-2-(furan-2-ylmethyl)imidazo[1,2-a]pyrazin-3(7H)-one], which “RLU (@100 μM)” value is on record?
A: The value was 1.5.

Q: With `Cc1c(O)cccc1-c1cn2c(=O)c(Cc3ccco3)nc-2c(Cc2ccccc2)[nH]1` [JRW-1645, 8-benzyl-2-(furan-2-ylmethyl)-6-(3-hydroxy-2-methylphenyl)imidazo[1,2-a]pyrazin-3(7H)-one] as the compound, how does the “RLU (@100 μM)” value read?
A: The value was 0.07.

Q: With `Cc1ccc(Cc2nc3c(Cc4ccccc4)[nH]c(-c4cccc(O)c4)cn-3c2=O)o1` [JRW-1056, 8-benzyl-6-(3-hydroxyphenyl)-2-((5-methylfuran-2-yl)methyl)imidazo[1,2-a]pyrazin-3(7H)-one] as the compound, how does the “RLU (@100 μM)” value read?
A: Its value is 1.1.

Q: With `O=c1c(Cc2ccco2)nc2c(Cc3ccccc3)[nH]c(-c3cc(O)ccc3F)cn1-2` [JRW-1405, 8-benzyl-6-(2-fluoro-5-hydroxyphenyl)-2-(furan-2-ylmethyl)imidazo[1,2-a]pyrazin-3(7H)-one] as the compound, how does the “RLU (@100 μM)” value read?
A: Its value is 1.0.

Q: For `Nc1cc(-c2cn3c(=O)c(Cc4ccco4)nc-3c(Cc3ccccc3)[nH]2)ccc1F` [JRW-1536, 6-(3-amino-4-fluorophenyl)-8-benzyl-2-(furan-2-ylmethyl)imidazo[1,2-a]pyrazin-3(7H)-one], which “RLU (@100 μM)” value is on record?
A: Its value is 0.08.

Q: Which “RLU (@100 μM)” value does the source give for `Nc1cccc(-c2cn3c(=O)c(Cc4ccco4)nc-3c(Cc3ccccc3)[nH]2)c1F` [JRW-1482, 6-(3-amino-2-fluorophenyl)-8-benzyl-2-(furan-2-ylmethyl)imidazo[1,2-a]pyrazin-3(7H)-one] here?
A: Its value is 1.7.

Q: For `O=c1c(Cc2ccco2)nc2c(Cc3ccccc3)[nH]c(-c3ccc(Cl)c(O)c3)cn1-2` [JRW-1483, 8-benzyl-6-(4-chloro-3-hydroxyphenyl)-2-(furan-2-ylmethyl)imidazo[1,2-a]pyrazin-3(7H)-one], which “RLU (@100 μM)” value is on record?
A: The value was 0.008.

Q: Which “RLU (@100 μM)” value does the source give for `O=c1c(Cc2ccc3c(c2)OCO3)nc2c(Cc3ccccc3)[nH]c(-c3cccc(O)c3)cn1-2` [JRW-0777, 2-(benzo[d][1,3]dioxol-5-ylmethyl)-8-benzyl-6-(3-hydroxyphenyl)imidazo[1,2-a]pyrazin-3(7H)-one] here?
A: Its value is 0.45.

Q: Which “RLU (@100 μM)” value does the source give for `Cc1cccc(Cc2[nH]c(-c3cccc(O)c3F)cn3c(=O)c(Cc4ccco4)nc2-3)c1` [JRW-1370, 6-(2-fluoro-3-hydroxyphenyl)-2-(furan-2-ylmethyl)-8-(3-methylbenzyl)imidazo[1,2-a]pyrazin-3(7H)-one] here?
A: The value was 0.036.

Q: With `O=c1c(Cc2ccco2)nc2c(Cc3ccccc3)[nH]c(-c3cccc([N+](=O)[O-])c3)cn1-2` [JRW-1424, 8-benzyl-2-(furan-2-ylmethyl)-6-(3-nitrophenyl)imidazo[1,2-a]pyrazin-3(7H)-one] as the compound, how does the “RLU (@100 μM)” value read?
A: The value was 0.14.

Q: Which “RLU (@100 μM)” value does the source give for `O=c1c(Cc2ccc(F)cc2)nc2c(Cc3ccccc3)[nH]c(-c3cccc(O)c3)cn1-2` [JRW-0786, 8-benzyl-2-(4-fluorobenzyl)-6-(3-hydroxyphenyl)imidazo[1,2-a]pyrazin-3(7H)-one] here?
A: Its value is 0.88.

Q: With `O=c1c(Cc2ccccc2)nc2c(Cc3ccccc3)[nH]c(-c3cccc(O)c3)cn1-2` [JRW-1043, 2,8-dibenzyl-6-(3-hydroxyphenyl)imidazo[1,2-a]pyrazin-3(7H)-one] as the compound, how does the “RLU (@100 μM)” value read?
A: The value was 0.8.

Q: Which “RLU (@100 μM)” value does the source give for `O=c1c(Cc2ccco2)nc2c(Cc3ccccc3)[nH]c(-c3cc(O)ccc3Cl)cn1-2` [JRW-1525, 8-benzyl-6-(2-chloro-5-hydroxyphenyl)-2-(furan-2-ylmethyl)imidazo[1,2-a]pyrazin-3(7H)-one] here?
A: The value was 0.4.

system: not listed separately; test: Solubility testing in formulation, UV-Vis of supernatant vs 0.2 micron filtrate; type: physicochemical; conditions: 8.7 mM in ethanol/propylene glycol/hydroxypropyl-β-cyclodextrin/PEG 400/water (10:10:10:35:35); UV spectra of supernatant vs filtrate
Protocol: This 5× stock solution was then added to a solution of hydroxypropyl-β-cyclodextrin/water/PEG400 to give a formulation mixture of 8.7 mM in ethanol/propylene glycol/hydroxypropyl-β-cyclodextrin/PEG 400/water (10:10:10:35:35). The mixture was vortexed and centrifuged. Supernatant was sampled and measured in a UV-Vis spectrometer. The mixture was filtered through a 0.2 micron syringe filter and the filtrate was measured and compared to the supernatant.
Shown in FIG. 1 are UV spectra of JRW-1040 in the formulation, comparing supernatant and filtrate. The two UV spectra are superimposed, showing JRW-1040 is fully soluble in the formulation. Shown in FIG. 2 is the same experiment with furimazine. […] This is an example showing improvements in solubility compared to furimazine.

Q: With `O=c1c(Cc2cccs2)nc2c(Cc3ccccc3)[nH]c(-c3cccc(O)c3)cn1-2` [JRW-1040, 8-benzyl-6-(3-hydroxyphenyl)-2-(thiophen-2-ylmethyl)imidazo[1,2-a]pyrazin-3(7H)-one] as the compound, how does the “Solubility in the formulation” value read?
A: The value was “fully soluble”.

Q: For `O=c1c(Cc2ccco2)nc2c(Cc3ccccc3)[nH]c(-c3ccccc3)cn1-2` [Furimazine, 8-benzyl-2-(furan-2-ylmethyl)-6-phenylimidazo[1,2-a]pyrazin-3(7H)-one, reference compound], which “Solubility in the formulation” value is on record?
A: Its value is “not fully soluble”.
